What was measured:
Experiment in all cases: combination Emax (second highest fraction inhibited in the dose matrix, 72 h); higher = more inhibition; extreme values may be limits of the assay
[1] = test system: MDA-MB-175-VII (Breast Carcinoma)
Outline: (§1)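 Cell lines in DMEM/F12 or RPMI with 10% FBS were plated in 1536-well plates, held 24 hours at 37°C, 5% CO2, then given two-drug dose matrices for 72 hours (DMSO typically 0.2%). Viability was read by CellTiter-Glo 2.0 luminescence and scaled as inhibition from 0 (vehicle wells) to 1 (blank wells). Combination Emax is the second-highest inhibition in the matrix; Bliss excess is observed combination effect minus expected EA + EB − EA·EB, EA and EB being single-agent effects.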

[2] = test system: HT-3 (Cervical Carcinoma)
Outline: as §1

[3] = test system: RPMI-8402 (T-Lymphoblastic Leukemia)
Outline: as §1

[4] = test system: SNU-1 (Gastric Carcinoma)
Outline: as §1

[5] = test system: RS4-11 (B-Lymphoblastic Leukemia)
Outline: as §1

[6] = test system: MG-63 (Osteosarcoma)
Outline: as §1

[7] = test system: ATN-1 (T-Lymphoblastic Leukemia)
Outline: as §1

[8] = test system: NCI-H1944 (Lung Adenocarcinoma)
Outline: as §1

[9] = test system: TK (B-Cell Non-Hodgkin's Lymphoma)
Outline: as §1

[10] = test system: BT-474 (Breast Carcinoma)
Outline: as §1

[11] = test system: SBC-3 (Small Cell Lung Carcinoma)
Outline: as §1

[12] = test system: NCI-H2170 (Squamous Cell Lung Carcinoma)
Outline: as §1

[13] = test system: SUP-HD1 (Hodgkin's Lymphoma)
Outline: as §1

[14] = test system: NCI-H1975 (Lung Adenocarcinoma)
Outline: as §1

[15] = test system: NCI-H835 (Other Solid Carcinomas)
Outline: as §1

[16] = test system: COR-L105 (Lung Adenocarcinoma)
Outline: as §1

[17] = test system: HT-1197 (Bladder Carcinoma)
Outline: as §1

[18] = test system: SK-N-DZ (Neuroblastoma)
Outline: as §1

[19] = test system: CAL-85-1 (Breast Carcinoma)
Outline: as §1

[20] = test system: SCC90 (Head and Neck Carcinoma)
Outline: as §1

SMILES | combination Emax [1] | combination Emax [2] | combination Emax [3] | combination Emax [4] | combination Emax [5] | combination Emax [6] | combination Emax [7] | combination Emax [8] | combination Emax [9] | combination Emax [10] | combination Emax [11] | combination Emax [12] | combination Emax [13] | combination Emax [14] | combination Emax [15] | combination Emax [16] | combination Emax [17] | combination Emax [18] | combination Emax [19] | combination Emax [20]
CC(=O)c1c(C)c2cnc(Nc3ccc(N4CCNCC4)cn3)nc2n(C2CCCC2)c1=O [Palbociclib] + Cc1c2c(nn1C)CSCc1cc(n(C)n1)CSc1cc(c3ccccc3c1)OCCCc1c(C(=O)O)n(C)c3c-2c(Cl)ccc13 [AZD5991] (first compound max 10 µM, 7x7, partner max 1 µM) | 0.249 | 0.693 | 0.974 | 0.805 | 0.841 | 0.406 | 0.954 | 0.633 | 0.266 | 0.497 | 0.806 | 0.389 | 0.62 | 0.321 | 0.416 | 0.207 | 0.247 | 0.55 | 0.234 | 0.965
CC(=O)c1c(C)c2cnc(Nc3ccc(N4CCNCC4)cn3)nc2n(C2CCCC2)c1=O [Palbociclib] + Cn1cnc2c(F)c(Nc3ccc(Br)cc3Cl)c(C(=O)NOCCO)cc21 [Selumetinib] (first compound max 10 µM, 7x7, partner max 10 µM) | 0.389 | 0.138 | 0.957 | 0.491 | 0.488 | 0.431 | 0.48 | 0.534 | 0.196 | 0.0817 | 0.744 | 0.3 | 0.445 | 0.455 | 0.133 | 0.403 | 0.245 | 0.61 | 0.387 | 0.726
COc1cccc(OCCCN)c1-c1cc(Nc2cnc(C#N)cn2)n[nH]1 [Prexasertib] + C=CCn1c(=O)c2cnc(Nc3ccc(N4CCN(C)CC4)cc3)nc2n1-c1cccc(C(C)(C)O)n1 [AZD1775] (first compound max 1 µM, partner max 1 µM) | 0.424 | 0.75 | 1 | 0.916 | 1 | 0.972 | 1 | 0.815 | 0.882 | 0.234 | 0.923 | 0.95 | 0.906 | 0.516 | 0.684 | 0.444 | 0.646 | 1 | 0.716 | 0.94
COc1cccc(OCCCN)c1-c1cc(Nc2cnc(C#N)cn2)n[nH]1 [Prexasertib] + CCc1c2c(nc3ccc(O)cc13)-c1cc3c(c(=O)n1C2)COC(=O)[C@]3(O)CC [SN-38] (first compound max 1 µM, 7x7, partner max 0.3 µM) | 0.547 | 0.933 | 1 | 0.953 | 1 | 0.964 | 0.999 | 0.857 | 1 | 0.244 | 0.957 | 0.956 | 0.954 | 0.861 | 0.632 | 0.488 | 0.543 | 1 | 0.85 | 0.952
COc1cccc(OCCCN)c1-c1cc(Nc2cnc(C#N)cn2)n[nH]1 [Prexasertib] + CN(C)CCCOc1ccc(-c2ccc3ncc4c(c3c2)n(C2CCOCC2)c(=O)n4C)cn1 [AZD0156] (first compound max 1 µM, 7x7, partner max 1 µM) | 0.327 | 0.453 | 1 | 0.842 | 1 | 0.906 | 1 | 0.785 | 0.918 | 0.237 | 0.8 | 0.868 | 0.886 | 0.291 | 0.366 | 0.435 | 0.571 | 1 | 0.315 | 0.737
COc1cccc(OCCCN)c1-c1cc(Nc2cnc(C#N)cn2)n[nH]1 [Prexasertib] + C[C@@H]1COCCN1C2=NC(=NC(=C2)C3(CC3)[S@](=N)(=O)C)C4=C5C=CNC5=NC=C4 [AZD6738] (first compound max 1 µM, 7x7, partner max 10 µM) | 0.398 | 0.679 | 1 | 0.888 | 1 | 0.866 | 1 | 0.789 | 0.901 | 0.133 | 0.762 | 0.847 | 0.903 | 0.426 | 0.372 | 0.473 | 0.603 | 1 | 0.477 | 0.679

From the supplement of paper PMC11061612
